Assay results published in PubChem BioAssay AID2060898 (Molecular Pharmacology Branch, DTP, NCI, 2025).

Test system: 616215-338-R-J1-PDC complex spheroid viability
Test: Anticancer human tumor 616215-338-R-J1-PDC patient-derived colon adenocarcinoma cell line growth inhibition [RAS]
Settings: for IC50: curve of first compound; for viability, T/C: stronger effect = lower value
Excerpt: RAS pathway inhibitors in Combinations in Complex Spheroids
A high-throughput screen of multi-cell type tumor spheroids was designed to identify active combinations of RAS pathway inhibitors and targeted small molecules. Complex spheroids include a stromal component modeled by human endothelial cells (HUVEC) and fibroblasts modeled by human mesenchymal stem cells (MSCs). The concentration ranges selected for each drug and investigational agent were based upon clinically achievable concentrations if the clinical Cmax of the agent was known.
Compounds. The drugs and investigational agents: abemaciclib (NSC768073), cobimetinib (NSC768068), divarasib (GDC6063, NSC841802), docetaxel (NSC628503), GDC-1971 (RLY-1971, NSC841576), gemcitabine (NSC613327), inavolisib (NSC800729), ipatasertib (NSC767898), KB-0742 (NSC834161), MRTX-1133 (NSC836407), osimertinib (NSC779217), RMC-4630 (NSC839698), RMC-6236 (NSC851965), RMC-6291 (NSC852671), Ro-3306 (NSC812927), sapanisertib (NSC764658), SN-38 (NSC673596), staurosporine (NSC755774), SY5609 (NSC837396), and tovorafenib (DAY101, NSC766906), were obtained from the National Cancer Institute (NCI) Developmental Therapeutics Program Chemical Repository. The FDA-approved anticancer drug set is available from the NCI Developmental Therapeutics Program. […] The stock solutions were prepared in dimethyl sulfoxide (DMSO, Sigma-Aldrich, St. Louis, MO, cat. D2650) at 800-fold the tested concentration and stored at -70 degrees C prior to their use. All drugs and investigational agents were tested over a range starting from a high concentration at or near the clinical Cmax and decreasing in half-log increments. If the clinical Cmax for an agent had not been determined, the highest concentration tested was 10 microM.
Cell Culture. All cells were maintained in an incubator at 37 degrees C and 5% CO2 with 95% humidity. The PDC lines were cultured according to standard operating procedures established by the NCI PDMR. All PDCs were thawed and cultured in Matrigel-coated flasks prepared with a working solution of 1X Ham's F-12 nutrient mix, without supplementation (Invitrogen, Waltham, MA, cat. 11765054), 100 U/mL penicillin-streptomycin (Invitrogen, cat. 15140122), and 2.5% Matrigel (Corning Inc., Corning, NY, cat. 354248) for the first three passages. The 362531-283-R-J2-PDC and 782815-120-R-J1-PDC lines were cultured in 6C/Colon 1B media, which includes advanced DMEM/F-12 (Thermo Fisher Scientific, cat. 12634028), 10 mM HEPES (Thermo Fisher Scientific, cat. 15630080), 1X GlutaMAX supplement (Thermo Fisher Scientific, cat. 35050061), 0.1 mg/mL primocin (InvivoGen, San Diego, CA, cat. ant-pm-2), 10% defined fetal bovine serum, heat inactivated (HyClone Laboratories Inc., Logan, UT, cat. SH30070.03HI), 50% L-WRN conditioned media (ATCC, cat. CRL-3276), 1.25 mM N-Acetyl-L-cysteine (Sigma-Aldrich, cat. A9165), 10 mM nicotinamide (Sigma-Aldrich, cat. N0636), 1X B-27 supplement (Thermo Fisher Scientific, cat. 17504044), 1X N-2 supplement (Thermo Fisher Scientific, cat. 17502048), 50 ng/mL human EGF (Thermo Fisher Scientific, cat. PHG0311), and 10 microM Y-27632 dihydrochloride (Tocris Bioscience, cat. 1254). The K12877-001-R-J1-PDC line was cultured in 6I media, which includes all 6C/Colon 1B media plus 10 ng/mL human FGF-10 (PeproTech, cat. 100-26), 1 ng/mL human FGF-2 (PeproTech, cat. 100-18B), 1 µM prostaglandin E2 (Tocris Bioscience, cat. 2296), […] hydrocortisone (Sigma-Aldrich, cat. H4001), and […] bovine insulin (Sigma-Aldrich, cat. I6634). The K86415-001-R-J1-PDC line was cultured in 6D media, which includes all 6C/Colon 1B media components minus the L-WRN conditioned media. The 485176-168-R4-J1-PDC was cultured in PANC media, which includes all 6C/Colon 1B media plus 100 ng/mL human FGF-10 (PeproTech, cat. 100-26), 500 nM SB-431542 (Selleckchem, cat. S1067), and 10 nM gastrin (Tocris Bioscience, cat. 3006). […]
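Note: spheroids exposed to agents for seven days before viability readout.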
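Throughout, for viability, T/C: 100% = DMSO vehicle control viability.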

CC1(O)CCCC1n1c(=O)c(C(F)F)cc2cnc(NC3CCN(S(C)(=O)=O)CC3)nc21 (configuration not stated) + C#Cc1c(F)ccc2cc(O)cc(-c3ncc4c(N5CC6CCC(C5)N6)nc(OCC56CCCN5CC(F)C6)nc4c3F)c12
IC50 (second compound 0.0316 µM): 1070 nM | IC50 (second compound 0.1 µM): 924 nM | IC50 (second compound 0.316 µM): 833 nM | IC50 (second compound 1 µM): 255 nM | IC50 (second compound 3.16 µM): 132 nM | IC50 (second compound 10 µM): 44 nM | viability, T/C (second compound 0.0316 µM, first compound 0.0316 µM): 110% | viability, T/C (second compound 0.0316 µM, first compound 0.1 µM): 114% | viability, T/C (second compound 0.0316 µM, first compound 0.316 µM): 53.5% | viability, T/C (second compound 0.0316 µM, first compound 1 µM): 49.1% | viability, T/C (second compound 0.0316 µM, first compound 3.16 µM): 45.4% | viability, T/C (second compound 0.0316 µM, first compound 10 µM): 1.06% | viability, T/C (second compound 0.1 µM, first compound 0.0316 µM): 107% | viability, T/C (second compound 0.1 µM, first compound 0.1 µM): 118% | viability, T/C (second compound 0.1 µM, first compound 0.316 µM): 50.2% | viability, T/C (second compound 0.1 µM, first compound 1 µM): 46.8% | viability, T/C (second compound 0.1 µM, first compound 3.16 µM): 39.4% | viability, T/C (second compound 0.1 µM, first compound 10 µM): 0.75% | viability, T/C (second compound 0.316 µM, first compound 0.0316 µM): 117% | viability, T/C (second compound 0.316 µM, first compound 0.1 µM): 112% | viability, T/C (second compound 0.316 µM, first compound 0.316 µM): 54.5% | viability, T/C (second compound 0.316 µM, first compound 1 µM): 44% | viability, T/C (second compound 0.316 µM, first compound 3.16 µM): 37.9% | viability, T/C (second compound 0.316 µM, first compound 10 µM): 2.34% | viability, T/C (second compound 1 µM, first compound 0.0316 µM): 111% | viability, T/C (second compound 1 µM, first compound 0.1 µM): 94.2% | viability, T/C (second compound 1 µM, first compound 0.316 µM): 38.8% | viability, T/C (second compound 1 µM, first compound 1 µM): 45.9% | viability, T/C (second compound 1 µM, first compound 3.16 µM): 50.5% | viability, T/C (second compound 1 µM, first compound 10 µM): 0.81% | viability, T/C (second compound 3.16 µM, first compound 0.0316 µM): 90.4% | viability, T/C (second compound 3.16 µM, first compound 0.1 µM): 49.9% | viability, T/C (second compound 3.16 µM, first compound 0.316 µM): 29.8% | viability, T/C (second compound 3.16 µM, first compound 1 µM): 35.8% | viability, T/C (second compound 3.16 µM, first compound 3.16 µM): 31.4% | viability, T/C (second compound 3.16 µM, first compound 10 µM): 2.44% | viability, T/C (second compound 10 µM, first compound 0.0316 µM): 59.5% | viability, T/C (second compound 10 µM, first compound 0.1 µM): 23.7% | viability, T/C (second compound 10 µM, first compound 0.316 µM): 26.1% | viability, T/C (second compound 10 µM, first compound 1 µM): 22.2% | viability, T/C (second compound 10 µM, first compound 3.16 µM): 21.8% | viability, T/C (second compound 10 µM, first compound 10 µM): 1.18%
